Tests used:
[1] = test system: BACE1; test: BACE1 expression in SH-SY5Y cells under H2O2 oxidative stress (western blot); type: cell-based, human; details: 10 μM RA-PR058 24 hours, then 200 μM H2O2 4 hours, normalized with β-Actin, n = 4
Protocol: Human neuroblastoma cell line, SH-SY5Y were maintained in DMEM (Welgene) supplemented with 10% fetal bovine serum (FBS, Gibco) and 1% penicillin/streptomycin (Capricorn) at 37 °C in a humidified atmosphere containing 5% CO2. […] [2024]). Samples for western blot analysis were prepared as previously described (Gwon et al. [2012]). Cells were lysed with T-PER^TM Tissue Protein Extraction Reagent (Thermo Fisher Scientific) supplemented with protease/phosphatase inhibitor cocktail (Thermo Fisher Scientific) and incubated at 4 °C for 10 minutes. After incubation, lysed samples were centrifuged at 13,000 x rpm for 10 minutes at 4 °C and the supernatant were used for western blot analysis. The cortices and hippocampi tissues were homogenized using RIPA lysis buffer (Millipore) supplemented with protease/phosphatase inhibitor cocktail and incubated at 4 °C for 30 minutes. Following incubation, lysed tissues were centrifuged at 13,000 x rpm for 30 minutes at 4 °C and the supernatant were used for western blot analysis. Protein concentrations were measured using Pierce^TM BCA Protein Assay Kits (Thermo Fisher Scientific). Equal amounts of proteins were mixed with NuPAGE^TM LDS Sample Buffer (Invitrogen) and 5% 2-mercaptoethanol (Sigma) and then boiled at 95 °C for 5 minutes. […] Protein bands were quantified using ImageJ (NIH).

[2] = test system: 5xFAD hippocampal neurons; test: vGlut1-pHluorin (vG-pH) synaptic transmission assay in primary hippocampal neurons; type: cell-based, mouse
Protocol: Hippocampal CA1-CA3 regions were isolated from postnatal (0–3 d old) 5xFAD mice. For dissociation, the dissected tissues were incubated with trypsin (Sigma) and DNase (Sigma) for 10 minutes at 37 ℃, followed by gentle trituration with pipette. 4.0–5.0 × 10^4 cells were plated on poly-ornithine-coated coverslips. Cells were maintained in culture media consisting of Neurobasal™-A Medium (Gibco) supplemented with GlutaMAX™ Supplement (Gibco) and B-27™ Supplement (Gibco) in a humidified incubator set at 37 ℃ with 5% CO2. Neurons were transfected 7 days after plating and further incubated for 14–21 days in culture medium. All results are obtained from at least three independent primary cultures. […]
For optical imaging, primary cultured hippocampal neurons were transfected with vGlut1-pHluorin (vG-pH) using the Ca^2+ phosphate precipitation method, as previously described (Bae et al. ([2020])). […] Fluorescence excitation/emission and collection were achieved using a 40 × Fluar Zeiss objective lens (1.3 NA) and 500–550 nm emission and 498 nm dichroic filters (Chroma). […]
All images were analyzed using ImageJ with plugin Time Series Analyzer. Synaptic boutons were selected as oval regions of interest (diameter, 10 pixels), and the intensity of fluorescence at synapses was measured. Fluorescence traces were analyzed using Origin Pro.

[3] = Microsomal stability; type: in vitro ADME; details: human, mouse, rat, dog, monkey, liver microsomes, 30 minutes 37 ℃, with and without NADPH, across all microsomes tested
Protocol: The metabolic stability of RA-PR058 was evaluated using liver microsomes from humans and various animal species at 37 ℃. This assay was carried out by SPMED Co., Ltd (Republic of Korea). The test was initiated by adding the 1 μM of RA-PR058 to liver microsomes in the presence or absence of an NADPH regenerating system. After incubation at 37 ℃ for 30 minutes, acetonitrile containing an internal standard was added to each sample to terminate the reaction. Samples were then centrifuged, and the supernatant was analyzed by LC-MS.

## Cl.N[C@@H](CCC(=O)NNc1ccccc1F)C(F)F [RA-PR058, (S)-4-amino-5,5-difluoro-N'-(2-fluorophenyl)pentanehydrazide hydrochloride]
[1]
  H2O2-induced increase in BACE1 expression: markedly attenuated
[2]; 5xFAD hippocampal neurons, 10 μM RA-PR058, 100 AP at 10 Hz, did not reach statistical significance
  Recovery of synaptic transmission dysfunction: partially recovered
[2]; RA-PR058 treated 5xFAD hippocampal neurons, 10 Hz for 10 s, normalized to maximal NH4Cl response, mean ± SEM, n = 6, untreated 5xFAD 0.11 ± 0.01, WT 0.20 ± 0.01
  Mean amplitude of 100AP vG-pH response: 0.15 ± 0.03
[3]
  remaining at 0.5 h, 1 μM: > 90%

Source: paper PMC11809180, “RA-PR058, a novel ramalin derivative, reduces BACE1 expression and phosphorylation of tau in Alzheimer’s disease mouse models” (Animal Cells and Systems, 2025)
